Measured values taken from patent US6737041B1, “Non-ozone depleting vapocoolants” (University of Cincinnati, priority 1993, dated 2004).

Columns and labels:
[1] = system: skin (site on the subject's forearm); assay: Study 1: minimum skin temperature after spraying coolant for 5 seconds from 12 inches; type: in vivo, human; conditions: spray time 5 seconds; for Minimum temperature for site A, MEAN ± STANDARD DEVIATION / Minimum temperature for site A: site A (forearm); for Minimum temperature for site A, MEAN ± STANDARD DEVIATION / Minimum temperature for site B, MEAN ± STANDARD DEVIATION: mean of 5 subjects, in °C (unit assumed); for Minimum temperature for site B, MEAN ± STANDARD DEVIATION / Minimum temperature for site B: site B (forearm, different from A)
Method: Tables 1 and 5 describe the experimental conditions in accordance with the procedural steps described above. The only difference between Table 1 and Table 5 and between Study 1 and Study 2 is that in Study 1 the spray time was five seconds, whereas in Study 2 the spray time was 3 seconds. Comparison is made between various coolants including ethylchloride at room temperature, ethylchloride at 11° C., Fluorimethane® at room temperature, Fuorimethane® at 11° C. and mixtures of HFC 152a and HFC 134a.
(§1) Tables 2 and 6 describe the subjects chosen including their normal skin temperature, the sex, race, age, weight and height of the subjects.

[2] = system: skin (site on the subject's forearm); assay: Study 2: minimum skin temperature after spraying coolant for 3 seconds from 12 inches; type: in vivo, human; conditions: spray time 3 seconds; for Minimum temperature for site A, MEAN ± SD / Minimum temperature for site A: site A (forearm); for Minimum temperature for site A, MEAN ± SD / Minimum temperature for site B, MEAN ± SD: mean of 15 subjects, in °C (unit assumed); for Minimum temperature for site B, MEAN ± SD / Minimum temperature for site B: site B (forearm, different from A)
Text: Tables 1 and 5 describe the experimental conditions in accordance with the procedural steps described above. The only difference between Table 1 and Table 5 and between Study 1 and Study 2 is that in Study 1 the spray time was five seconds, whereas in Study 2 the spray time was 3 seconds.
as §1

[3] = subject 1, in °C (unit assumed)
[4] = subject 2, in °C (unit assumed)
[5] = subject 3, in °C (unit assumed)
[6] = subject 4, in °C (unit assumed)
[7] = subject 5, in °C (unit assumed)
[8] = subject code 1, in °C (unit assumed)
[9] = subject code 2, in °C (unit assumed)
[10] = subject code 3, in °C (unit assumed)
[11] = subject code 4, in °C (unit assumed)
[12] = subject code 5, in °C (unit assumed)
[13] = subject code 6, in °C (unit assumed)
[14] = subject code 7, in °C (unit assumed)
[15] = subject code 8, in °C (unit assumed)
[16] = subject code 9, in °C (unit assumed)
[17] = subject code 10, in °C (unit assumed)
[18] = subject code 11, in °C (unit assumed)
[19] = subject code 12, in °C (unit assumed)
[20] = subject code 13, in °C (unit assumed)
[21] = subject code 14, in °C (unit assumed)
[22] = subject code 15, in °C (unit assumed)

**Q.** What does the source list for `CCCl` [EC, Ethyl chloride]?
**A.** Minimum temperature for site A, MEAN ± STANDARD DEVIATION [1]: −14.93 ± 2.45; Minimum temperature for site A [1, 3]: −13.22; Minimum temperature for site A [1, 4]: −16.87; Minimum temperature for site A [1, 5]: −17.56; Minimum temperature for site A [1, 6]: −11.72; Minimum temperature for site A [1, 7]: −15.26; Minimum temperature for site B, MEAN ± STANDARD DEVIATION [1]: −16.40 ± 0.77; Minimum temperature for site B [1, 3]: −16.87; Minimum temperature for site B [1, 4]: −15.78; Minimum temperature for site B [1, 5]: −15.73; Minimum temperature for site B [1, 6]: −16.12; Minimum temperature for site B [1, 7]: −17.50; Minimum temperature for site A, MEAN ± SD [2]: −15.70 ± 1.56; Minimum temperature for site A [2, 8]: −16.93; Minimum temperature for site A [2, 9]: −14.64; Minimum temperature for site A [2, 10]: −13.78; Minimum temperature for site A [2, 11]: −14.86; Minimum temperature for site A [2, 12]: −15.34; Minimum temperature for site A [2, 13]: −14.75; Minimum temperature for site A [2, 14]: 16.70; Minimum temperature for site A [2, 15]: −18.76; Minimum temperature for site A [2, 16]: −15.46; Minimum temperature for site A [2, 17]: −16.53; Minimum temperature for site A [2, 18]: −14.68; Minimum temperature for site A [2, 19]: −13.59; Minimum temperature for site A [2, 20]: −14.52; Minimum temperature for site A [2, 21]: −16.62; Minimum temperature for site A [2, 22]: −18.45; Minimum temperature for site B, MEAN ± SD [2]: −15.92 ± 2.01; Minimum temperature for site B [2, 8]: −17.99; Minimum temperature for site B [2, 9]: −17.03; Minimum temperature for site B [2, 10]: −13.60; Minimum temperature for site B [2, 11]: −16.89; Minimum temperature for site B [2, 12]: −15.33; Minimum temperature for site B [2, 13]: −12.73; Minimum temperature for site B [2, 14]: −15.93; Minimum temperature for site B [2, 15]: −18.79; Minimum temperature for site B [2, 16]: −12.08; Minimum temperature for site B [2, 17]: −14.03; Minimum temperature for site B [2, 18]: −18.32; Minimum temperature for site B [2, 19]: −16.52; Minimum temperature for site B [2, 20]: 16.48; Minimum temperature for site B [2, 21]: −16.02; Minimum temperature for site B [2, 22]: −17.12

**Q.** `CCCl` [ECC, Ethyl chloride] was tested. Which “Minimum temperature for site A, MEAN ± STANDARD DEVIATION” value [1] did it give?
**A.** The value was −15.59 ± 2.50.

**Q.** What about the “Minimum temperature for site A” value [1, 3] of the same compound?
**A.** Its value is −15.80.

**Q.** And the “Minimum temperature for site A” value [1, 4]?
**A.** Its value is −11.32.

**Q.** What about the “Minimum temperature for site A” value [1, 5] of the same compound?
**A.** The value was −17.81.

**Q.** What about the “Minimum temperature for site A” value [1, 6] of the same compound?
**A.** Its value is −16.19.

**Q.** And the “Minimum temperature for site A” value [1, 7]?
**A.** The value was −16.84.

**Q.** And the “Minimum temperature for site B, MEAN ± STANDARD DEVIATION” value [1]?
**A.** The value was −18.41 ± 1.92.

**Q.** What about the “Minimum temperature for site B” value [1, 3] of the same compound?
**A.** Its value is −19.22.

**Q.** And the “Minimum temperature for site B” value [1, 4]?
**A.** The value was −15.56.

**Q.** And the “Minimum temperature for site B” value [1, 5]?
**A.** Its value is −18.71.

**Q.** What about the “Minimum temperature for site B” value [1, 6] of the same compound?
**A.** Its value is −17.80.

**Q.** What about the “Minimum temperature for site B” value [1, 7] of the same compound?
**A.** The value was −20.75.

**Q.** And the “Minimum temperature for site A, MEAN ± SD” value [2]?
**A.** The value was −16.12 ± 2.13.

**Q.** What about the “Minimum temperature for site A” value [2, 8] of the same compound?
**A.** The value was −17.89.

**Q.** What about the “Minimum temperature for site A” value [2, 9] of the same compound?
**A.** Its value is −17.54.

**Q.** What about the “Minimum temperature for site A” value [2, 10] of the same compound?
**A.** The value was −14.82.

**Q.** What about the “Minimum temperature for site A” value [2, 11] of the same compound?
**A.** Its value is −13.46.

**Q.** What about the “Minimum temperature for site A” value [2, 12] of the same compound?
**A.** The value was −17.04.

**Q.** What about the “Minimum temperature for site A” value [2, 13] of the same compound?
**A.** Its value is −17.18.

**Q.** And the “Minimum temperature for site A” value [2, 14]?
**A.** The value was −13.22.

**Q.** What about the “Minimum temperature for site A” value [2, 15] of the same compound?
**A.** Its value is −13.10.

**Q.** And the “Minimum temperature for site A” value [2, 16]?
**A.** Its value is −18.11.

**Q.** And the “Minimum temperature for site A” value [2, 17]?
**A.** Its value is −17.63.

**Q.** What about the “Minimum temperature for site A” value [2, 18] of the same compound?
**A.** Its value is −15.56.

**Q.** What about the “Minimum temperature for site A” value [2, 19] of the same compound?
**A.** Its value is −17.00.

**Q.** What about the “Minimum temperature for site A” value [2, 20] of the same compound?
**A.** Its value is −13.13.

**Q.** And the “Minimum temperature for site A” value [2, 21]?
**A.** Its value is −16.26.

**Q.** And the “Minimum temperature for site A” value [2, 22]?
**A.** Its value is −19.80.

**Q.** What about the “Minimum temperature for site B, MEAN ± SD” value [2] of the same compound?
**A.** The value was −15.54 ± 3.33.

**Q.** What about the “Minimum temperature for site B” value [2, 8] of the same compound?
**A.** The value was −12.79.

**Q.** What about the “Minimum temperature for site B” value [2, 9] of the same compound?
**A.** The value was −17.73.

**Q.** What about the “Minimum temperature for site B” value [2, 10] of the same compound?
**A.** Its value is −11.70.

**Q.** And the “Minimum temperature for site B” value [2, 11]?
**A.** The value was −16.21.

**Q.** And the “Minimum temperature for site B” value [2, 12]?
**A.** Its value is −15.84.

**Q.** And the “Minimum temperature for site B” value [2, 13]?
**A.** The value was −15.32.

**Q.** And the “Minimum temperature for site B” value [2, 14]?
**A.** Its value is −10.04.

**Q.** And the “Minimum temperature for site B” value [2, 15]?
**A.** The value was −20.86.

**Q.** And the “Minimum temperature for site B” value [2, 16]?
**A.** The value was −16.69.

**Q.** What about the “Minimum temperature for site B” value [2, 17] of the same compound?
**A.** The value was −18.07.

**Q.** And the “Minimum temperature for site B” value [2, 18]?
**A.** The value was −18.65.

**Q.** And the “Minimum temperature for site B” value [2, 19]?
**A.** Its value is −10.58.

**Q.** What about the “Minimum temperature for site B” value [2, 20] of the same compound?
**A.** The value was −12.08.

**Q.** And the “Minimum temperature for site B” value [2, 21]?
**A.** Its value is −17.86.

**Q.** What about the “Minimum temperature for site B” value [2, 22] of the same compound?
**A.** The value was −18.69.
